In patent US12310938B2, “Compositions and methods for weight loss maintenance” (priority 2017, dated 2025):
Entries after “also recorded” stand apart in the source; their conditions may differ.

How the values were obtained:
[1] = Study 3: acute oral gavage trial, 7 days; type: in vivo, Sprague Dawley Rats; conditions: rats
Method: FIGS. 2A-2B depict results of an acute gavage trial in rats.
R,S 1,3 butanediol diacetoacetate (KE) was administered to Sprague Dawley Rats by oral gavage (at 5 mL/kg, which may translate to about 300-700 mg/kg for a human). Water, BHB-salt, or BHB-salt+MCT mixture was administered to other Sprague Dawley Rats for comparison. Animals were provided ad libitum access to standard rodent chow.

[2] = Study 5: weight loss to 20% with ketogenic agents vs caloric restriction, then return to ad libitum standard diet (weight loss maintenance); type: in vivo; conditions: C57BL/6J; for food efficiency during weight loss maintenance (bodyweight regain proportional to calories consumed, FIG. 6): after cessation of agent, ad libitum SD, compared to caloric restriction and butanediol; for weight loss as ratio to kcal of ketogenic agent per total daily intake (FIGS. 4A-4B): compared to butanediol, BHB+MCT, BHB; for weight loss as a ratio to caloric intake/day (FIG. 5B): compared to BHB, BHB+MCT and CR groups
Source text: FIGS. 4A-4B depict results of weight loss induced by various ketogenic agents against regular SD caloric restriction, illustrating the effectiveness of various ketogenic agents for inducing weight loss. Treatments: Beta-Hydroxybutyrate (BHB); Beta-Hydroxybutyrate+Medium Chain Triglycerides (BHB+MCT); Butanediol (BD); R,S 1,3-Butanediol Acetoacetate Diester (KE).
FIGS. 5A-5B depict treatment timeline of weight loss study utilizing various ketogenic agents against SD caloric restriction, as well as evaluation of weight loss potency of each ketogenic agent. Treatments: Standard Diet ad-Libitum (SD-AL); Standard Diet Caloric Restriction (CR); Beta-Hydroxybutyrate (BHB); Beta-Hydroxybutyrate+Medium Chain Triglycerides (BHB+MCT); Butanediol (BD); R,S 1,3-Butanediol Acetoacetate Diester (KE). […] These reductions in bodyweight were at lower percentages of the ketogenic agent within the food. Additionally, KE animals reach target weight loss at much LOWER % of ketogenic agent integrated into the diet.
FIG. 6 depicts food efficiency during weight loss maintenance by calculating bodyweight regain proportional to calories consumed. Treatments: Standard Diet ad-Libitum (SD-AL); Standard Diet Caloric Restriction (CR); Beta-Hydroxybutyrate (BHB); Beta-Hydroxybutyrate+Medium Chain Triglycerides (BHB+MCT); Butanediol (BD); R,S 1,3-Butanediol Acetoacetate Diester (KE).
C57BL/6J animals were obtained. Prior to experimental initiation, animals were randomly assigned to one (1) of five (5) groups: Caloric Restriction with standard diet (SD), Beta-hydroxybutyrate with SD (BHB), BHB+Medium Chain Triglycerides with SD (BHB+MCT), 1,3-Butanediol with SD (BD), and R,S 1,3 Butanediol Acetoacetate Diester with SD (KE). All animals initiated weight loss by either reducing the amount of calories consumed (CR group) or adding various % of ketogenic agents to induce weight loss. There was no difference in bodyweight across groups at baseline. All animals underwent weight loss until 20% weight loss was achieved. Upon reaching 20% weight loss, animals were switched back onto ad-libitum SD.
Calories intake, bodyweight, and kcal of ketogenic agent in diet were recorded daily. In order to calculate the effectiveness of each agent to induce weight loss, weight loss as both grams and % weight loss, was compared as a ratio to the amount of kcal from each ketogenic agent compared to total kcals consumed a day.

[3] = Study 4: chronic feeding trial, 15 weeks; type: in vivo, Sprague Dawley Rats; conditions: rats; for bodyweight (prevention of weight gain, maintaining a lower weight): in food, 25 g/kg/d, 15 weeks, compared to standard diet, BHB-S, S-MCT
Source text: FIG. 3 depicts results of a chronic feeding trial in rats. SD: standard rodent chow (fed ad libitum); LKE: low-dose R,S 1,3-butanediol diacetoacetate (approx. 5 g/kg/day in food); HKE: high-dose R,S 1,3-butanediol diacetoacetate (approx. 25 g/kg/day in food); BHB-S: beta-hydroxybutyrate salt (approx. 25 g/kg/day in food); S-MCT: 1:1 beta-hydroxybutyrate salt: medium chain triglyceride oil (approx. 25 g/kg/day).

[4] = Study 1: chronic ad libitum feeding trial, 28 days; type: in vivo; conditions: VM/Dk mice, 10-20% by weight in standard chow; for bodyweight (weight loss and its maintenance): males and females, compared to SD or KD chow ad libitum
Method: FIGS. 1A-1H depict results of a chronic ad libitum feeding trial of male and female mice (Standard Diet Male (n=7)=SD-M; Ketogenic Diet Male (n=7)=KD-M; R/S 1,3 Butanediol Acetoacetate Diester (n=4)=KE-M; Standard Diet Female (n=7)=SD-F; Ketogenic Diet Female (n=6)=KD-F; R/S 1,3 Butanediol Acetoacetate Diester Female (n=4)=KE-F).
R,S 1,3-butanediol diacetoacetate (KE; 10-20% by weight mixed into standard chow) was administered to VM/Dk mice at for both males and females for 28 days. Standard rodent chow (SD) and ketogenic diet chow (KD) were administered to other VM/Dk mice ad libitum for comparison.

[5] = agent in standard diet until 20% weight loss

Compound	bodyweight (prevention of weight gain, maintaining a lower weight) ([1]; gavage 5 g/kg once daily (5 mL/kg), ad libitum standard chow, compared to water, BHB-S, S-MCT, p<0.01)	calorie intake (self-restriction) ([1]; gavage once daily, ad libitum access to standard rodent chow)	food efficiency during weight loss maintenance (bodyweight regain proportional to calories consumed, FIG. 6) [2]	food efficiency during weight loss maintenance (bodyweight regain proportional to calories consumed, FIG. 6) ([2]; listed as R,S 1,3-butanediol diacetoacetate)	speed of bodyweight reduction and % of agent in the diet needed (FIG. 5A) [2, 5]	weight loss as ratio to kcal of ketogenic agent per total daily intake (FIGS. 4A-4B) [2, 5]	weight loss as ratio to kcal of ketogenic agent per total daily intake (FIGS. 4A-4B) ([2]; agent in standard diet until 20% weight loss, listed as R,S 1,3 Butanediol Acetoacetate diester)	weight loss as a ratio to caloric intake/day (FIG. 5B) [2]	Approximate caloric intake compared to controls following adaptation to diet (weeks 13-15) ([3]; approx. 25 g/kg/day in food) [% kcal]	bodyweight (prevention of weight gain, maintaining a lower weight) [3]	bodyweight (prevention of weight gain, maintaining a lower weight) ([3]; listed as R,S 1,3 butanediol diacetoacetate)	Approximate caloric intake compared to controls following adaptation to diet (weeks 13-15) ([3]; low dose, approx. 5 g/kg/day in food)	white adipose tissue ([4]; compared to SD or KD)	bodyweight (weight loss and its maintenance) [4]	bodyweight (weight loss and its maintenance) ([4]; listed as ketone diester)	food efficiency during weight loss maintenance (bodyweight regain proportional to calories consumed, FIG. 6) ([2]; listed as BHB)
CC(=O)CC(=O)OCCC(C)OC(=O)CC(C)=O (stereo not shown) [KE, R,S 1,3-butanediol diacetoacetate]	more effective than BHB-S, S-MCT, or Control at preventing weight gain and maintaining a lower weight; also recorded: significantly lower bodyweight	self-restricted calories	more effective at inducing inefficiencies in kcal consumed; also recorded: had lingering effects on food efficiency and weight loss maintenance	help contribute to maintenance of weight loss after cessation of weight loss intervention by reducing food efficiency	induced a quicker reduction in bodyweight; also recorded: induces more rapid weight loss	superior per kcal used at inducing weight loss	superior weight loss agent per total average daily intake	significantly more potent at inducing weight loss when divided by total caloric intake	~−7	more effective than BHB-S or S-MCT at preventing weight gain and maintaining a lower weight	significantly lower bodyweight	~+10% kcal	induce reductions in white adipose tissue	induced and maintained long-term weight loss	lost significantly more bodyweight	
beta-hydroxybutyrate salt [BHB-S, reference compound]			help contribute to maintenance of weight loss after cessation of weight loss intervention by reducing food efficiency					could be explained by caloric restriction alone	~−25							more effective at inducing inefficiencies in kcal consumed; also recorded: had lingering effects on food efficiency and weight loss maintenance; also recorded: helped maintain weight loss post cessation of agent administration
